Laboratory results taken from patent publication US11253516B2, “N2,N4-diphenylpyrimidine-2,4-diamine derivative, method for preparing same, and pharmaceutical composition containing same as active ingredient for prevention or treatment of cancer” (Korea Research Institute of Chemical Technology, priority 2017, dated 2022).
Like-named read-outs stand apart in the source and are kept apart here.

Key:
Ba/F3 EGFR wt. cell line = assay: CellTiter-Glo cell viability, Ba/F3 EGFR wild-type; type: cell-based; conditions: 72 hours
Procedure: (§1) The measurement of an activity on wild-type and mutation Ba/F3 EGFR cell line of the compound of the present invention was experimented by utilizing the CellTiter-Glo system sold by Promega, as follow. The CellTiter-Glo assay is a method for measuring the ATP present in cells in cell culture conditions to determine the cell viability.
(§2) The analysis of an EGFR inhibitory ability effect of the compound was carried out in accordance with the analysis reaction recipe below.
(§3) After the reaction of 72 hours, the plate treated with the compound was allowed to stand for 30 minutes at ambient temperature, and then, was further treated with 100 μl of the reagent, and was shaked for 10 minutes at ambient temperature. […] The measurement values measured at the eight concentrations of the compound were analyzed by using the Prism program (version 5.01, Graphpad Software, Inc.), and IC50 value of the compound was calculated, which is an inhibitory ability indicator.

[1] = test system: Ba/F3 EGFR del19 cell line; assay: CellTiter-Glo cell viability, Ba/F3 EGFR del19; type: cell-based; conditions: 72 hours
Procedure: as §1, §2, §3

[2] = test system: Ba/F3 EGFR del19/T790M cell line; assay: CellTiter-Glo cell viability, Ba/F3 EGFR del19/T790M; type: cell-based; conditions: read-out: Ba/F3 EGFR del19/T790M IC50
Procedure: as §1, §2
(§4) After the reaction of 72 hours, the plate treated with the compound was allowed to stand for 30 minutes at ambient temperature, and then, was further treated with 100 μl of the reagent, and was shaked for 10 minutes at ambient temperature.

EGFR wt. = EGFR wt. (Homo sapiens (Human), UniProt P00533); assay: HTRF enzyme assay, wild-type EGFR; type: biochemical; conditions: recombinant enzyme
EGFR wt., sequence (P00533 25-1210): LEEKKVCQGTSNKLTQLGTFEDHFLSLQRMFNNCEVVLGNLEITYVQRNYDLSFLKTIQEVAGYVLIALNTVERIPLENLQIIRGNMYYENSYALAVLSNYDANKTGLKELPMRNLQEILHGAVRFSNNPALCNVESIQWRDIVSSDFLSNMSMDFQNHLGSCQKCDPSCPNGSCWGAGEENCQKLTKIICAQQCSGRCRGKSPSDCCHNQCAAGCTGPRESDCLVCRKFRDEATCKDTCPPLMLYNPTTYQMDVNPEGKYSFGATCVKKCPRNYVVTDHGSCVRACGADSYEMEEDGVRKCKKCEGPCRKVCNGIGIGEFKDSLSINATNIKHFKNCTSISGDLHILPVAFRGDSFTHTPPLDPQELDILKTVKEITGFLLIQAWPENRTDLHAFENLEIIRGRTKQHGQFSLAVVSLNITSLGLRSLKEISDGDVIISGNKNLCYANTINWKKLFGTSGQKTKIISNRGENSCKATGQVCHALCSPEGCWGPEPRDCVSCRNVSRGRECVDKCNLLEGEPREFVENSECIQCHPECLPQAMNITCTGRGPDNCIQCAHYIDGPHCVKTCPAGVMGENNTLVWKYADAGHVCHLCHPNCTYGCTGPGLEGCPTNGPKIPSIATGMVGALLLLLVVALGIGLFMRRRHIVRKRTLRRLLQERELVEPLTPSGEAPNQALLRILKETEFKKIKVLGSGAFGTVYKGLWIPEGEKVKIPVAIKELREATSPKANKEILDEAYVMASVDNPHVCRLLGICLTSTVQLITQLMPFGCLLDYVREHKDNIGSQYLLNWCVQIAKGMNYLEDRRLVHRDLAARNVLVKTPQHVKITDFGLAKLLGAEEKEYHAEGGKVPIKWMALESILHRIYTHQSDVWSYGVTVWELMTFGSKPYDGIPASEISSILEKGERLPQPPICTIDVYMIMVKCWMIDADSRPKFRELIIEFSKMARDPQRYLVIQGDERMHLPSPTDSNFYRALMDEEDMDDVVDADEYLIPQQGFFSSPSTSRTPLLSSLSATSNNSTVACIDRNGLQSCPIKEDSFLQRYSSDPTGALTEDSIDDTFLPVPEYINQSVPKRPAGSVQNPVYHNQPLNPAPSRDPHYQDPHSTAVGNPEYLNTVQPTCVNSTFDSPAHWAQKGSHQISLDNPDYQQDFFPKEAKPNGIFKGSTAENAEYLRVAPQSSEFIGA
Procedure: (§5) The measurement of an activity on wild-type and EGFR mutation enzyme of the compound of the present invention was experimented by utilizing the HTRF system sold by Cisbio, as follow.
(§6) The composition of the assay buffer used in the activity measurement was 50 mM Tris-HCl pH 7.5, 100 mM NaCl, 7.5 mM MgCl2, 3 mM KCl, 0.01% Tween 20, 0.1% BSA, 1 mM DTT. The enzymatic reaction was carried out hereto by using the peptide substrate labeled with ATP of […] concentration and biotin of […] concentration. The analysis of an EGFR activity inhibitory effect of the compound was carried out in accordance with the analysis reaction recipe below.
(§7) Component 1: […] of EGFR wild-type or mutation enzyme
(§8) Component 2: […] of compound solution
(§9) Component 3: […] of peptide labeled with ATP and biotin
(§10) The enzymatic reaction was initiated by mixing Component 1 and Component 2 first, and then, adding component 3. After the reaction for 2 hours at 37° C., […] of a measurement solution consisting of streptavidin-XL665 provided by Cisbio and anti-phosphotyrosine antibody labeled with europium was added to the enzymatic reaction solution and reacted for 1 hour at ambient temperature. […] The measurement values measured at the seven concentrations of the compound were analyzed by using the Prism program (version 5.01, Graphpad Software, Inc.), and IC50 value of the compound was calculated, which is an inhibitory ability indicator.

EGFR del19 = EGFR del19 (Homo sapiens (Human), UniProt P00533, DEL746-750); assay: HTRF enzyme assay, EGFR del19; type: biochemical; conditions: recombinant enzyme
EGFR del19, sequence (P00533 other isoform, or with tags, fused parts or gaps del 1-668/del 746-750 limits assumed): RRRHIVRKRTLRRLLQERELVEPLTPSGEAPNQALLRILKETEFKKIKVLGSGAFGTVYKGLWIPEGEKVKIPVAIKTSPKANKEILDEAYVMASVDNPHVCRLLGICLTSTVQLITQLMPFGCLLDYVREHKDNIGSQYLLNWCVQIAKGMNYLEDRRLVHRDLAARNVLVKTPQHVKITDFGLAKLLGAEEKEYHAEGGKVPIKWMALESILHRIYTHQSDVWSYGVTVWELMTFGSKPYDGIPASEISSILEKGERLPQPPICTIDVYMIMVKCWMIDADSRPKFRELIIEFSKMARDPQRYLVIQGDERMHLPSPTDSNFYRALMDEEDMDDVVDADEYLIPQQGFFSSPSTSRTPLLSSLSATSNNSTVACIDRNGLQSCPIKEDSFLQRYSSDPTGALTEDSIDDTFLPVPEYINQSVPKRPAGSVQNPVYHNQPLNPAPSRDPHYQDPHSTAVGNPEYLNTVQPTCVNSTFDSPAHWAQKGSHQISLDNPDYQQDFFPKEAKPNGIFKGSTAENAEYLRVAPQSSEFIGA
Procedure: as §5, §6, §7, §8, §9, §10

EGFR del19/T790M = EGFR del19/T790M (Homo sapiens (Human), UniProt P00533, DEL746-750/T790M); assay: HTRF enzyme assay, EGFR del19/T790M; type: biochemical; conditions: recombinant enzyme
EGFR del19/T790M, sequence (P00533 other isoform, or with tags, fused parts or gaps T790M/del 1-668/del 746-750 limits assumed): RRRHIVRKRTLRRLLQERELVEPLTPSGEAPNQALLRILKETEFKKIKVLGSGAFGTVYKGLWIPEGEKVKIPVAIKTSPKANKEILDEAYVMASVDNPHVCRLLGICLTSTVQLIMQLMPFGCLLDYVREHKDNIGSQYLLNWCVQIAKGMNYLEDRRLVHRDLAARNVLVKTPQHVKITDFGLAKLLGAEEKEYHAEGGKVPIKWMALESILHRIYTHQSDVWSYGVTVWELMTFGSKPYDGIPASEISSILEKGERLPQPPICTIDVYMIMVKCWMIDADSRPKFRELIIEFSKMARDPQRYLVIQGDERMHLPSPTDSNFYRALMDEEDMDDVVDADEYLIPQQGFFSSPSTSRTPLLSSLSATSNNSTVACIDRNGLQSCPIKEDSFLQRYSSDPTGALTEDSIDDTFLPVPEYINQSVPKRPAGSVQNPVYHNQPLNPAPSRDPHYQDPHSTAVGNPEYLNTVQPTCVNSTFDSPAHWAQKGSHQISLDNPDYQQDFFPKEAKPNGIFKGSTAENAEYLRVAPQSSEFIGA
Procedure: as §5, §6, §7, §8, §9, §10

EGFR del19/T790M/C797S = EGFR del19/T790M/C797S (Homo sapiens, UniProt P00533, C797S/DEL746-750/T790M); assay: HTRF enzyme assay, EGFR del19/T790M/C797S; type: biochemical
EGFR del19/T790M/C797S, sequence (P00533 with tags, fused parts or gaps C797S/DEL746-750/T790M limits assumed): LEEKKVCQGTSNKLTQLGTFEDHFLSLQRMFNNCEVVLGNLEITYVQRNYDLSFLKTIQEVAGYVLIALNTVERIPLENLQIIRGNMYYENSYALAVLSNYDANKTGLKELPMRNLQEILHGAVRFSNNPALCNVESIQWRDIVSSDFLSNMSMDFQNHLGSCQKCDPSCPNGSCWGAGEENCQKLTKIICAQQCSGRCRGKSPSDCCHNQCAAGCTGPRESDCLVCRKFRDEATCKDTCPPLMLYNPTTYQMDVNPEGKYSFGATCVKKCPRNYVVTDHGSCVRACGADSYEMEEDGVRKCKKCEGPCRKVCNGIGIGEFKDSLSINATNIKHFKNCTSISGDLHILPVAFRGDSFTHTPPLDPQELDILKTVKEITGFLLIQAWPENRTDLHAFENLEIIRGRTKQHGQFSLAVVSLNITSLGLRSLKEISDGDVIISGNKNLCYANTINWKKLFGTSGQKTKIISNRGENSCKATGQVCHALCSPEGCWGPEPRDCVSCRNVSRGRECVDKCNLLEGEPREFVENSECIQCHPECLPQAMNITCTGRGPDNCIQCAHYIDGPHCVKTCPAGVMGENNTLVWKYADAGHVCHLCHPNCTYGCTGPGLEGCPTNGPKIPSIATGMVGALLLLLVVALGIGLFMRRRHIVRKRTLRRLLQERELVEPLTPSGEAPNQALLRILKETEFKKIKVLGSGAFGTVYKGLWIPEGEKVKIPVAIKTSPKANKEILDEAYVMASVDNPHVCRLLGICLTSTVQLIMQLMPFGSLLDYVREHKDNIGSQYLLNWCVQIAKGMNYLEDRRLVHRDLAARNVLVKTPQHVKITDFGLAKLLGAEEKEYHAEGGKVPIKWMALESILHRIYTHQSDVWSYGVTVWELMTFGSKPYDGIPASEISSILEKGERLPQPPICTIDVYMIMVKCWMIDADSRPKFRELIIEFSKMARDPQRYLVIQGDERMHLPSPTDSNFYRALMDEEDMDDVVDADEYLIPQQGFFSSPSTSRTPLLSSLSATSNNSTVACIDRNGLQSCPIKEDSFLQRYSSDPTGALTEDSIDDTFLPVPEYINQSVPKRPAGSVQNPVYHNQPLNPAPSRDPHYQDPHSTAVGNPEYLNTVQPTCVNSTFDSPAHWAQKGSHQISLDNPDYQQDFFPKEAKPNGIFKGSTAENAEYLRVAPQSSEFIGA
Procedure: as §5, §6, §7, §8, §9, §10

[3] = test system: Ba/F3 EGFR del19/T790M/C797S cell line; assay: CellTiter-Glo cell viability, Ba/F3 EGFR del19/T790M/C797S; type: cell-based; conditions: read-out: Ba/F3 EGFR del19/T790M/C797S IC50
Procedure: as §1, §2, §4

[4] = HTRF, recombinant enzyme, read-out: EGFR del19/T790M/C797S IC50

Row | IC50 (Ba/F3 EGFR wt. cell line) [nM] | IC50 [1] [nM] | IC50 ([2]; CellTiter-Glo, 72 hours) [nM] | IC50 (EGFR wt.) [nM] | IC50 (EGFR del19) [nM] | IC50 (EGFR del19/T790M) [nM] | IC50 (EGFR del19/T790M/C797S; [4]) [nM] | IC50 ([3]; CellTiter-Glo, 72 hours) [nM] | Compound | IC50 (EGFR del19/T790M/C797S) [nM] | IC50 ([2]; 72 h) [nM] | IC50 ([3]; 72 h) [nM]
1 | 2800 | 3800 | 1800 | 730 | 12 | 12 | 3 | 2400 | COc1cc(C2CCNCC2)c(C)cc1Nc1ncc(Cl)c(Nc2ccccc2NS(C)(=O)=O)n1 [Example 2, N-(2-((5-chloro-2-((2-methoxy-5-methyl-4-(piperidin-4-yl)phenyl)amino)pyrimidin-4-yl)amino)phenyl)methanesulfonamide] |  |  | 
2 | 4100 | 1000 | 1200 | 840 | 18 | 5 | 2 | 1600 | COc1cc(C2CCNCC2)ccc1Nc1ncc(Br)c(Nc2ccccc2NS(C)(=O)=O)n1 [Example 3, N-(2-((5-bromo-2-((2-methoxy-4-(piperidin-4-yl)phenyl)amino)pyrimidin-4-yl)amino)phenyl)methanesulfonamide] |  |  | 
3 | 2400 | 260 | 570 | 4300 | 33 | 13 | 14 | 790 | COc1cc(C2CCNCC2)ccc1Nc1ncc(C(F)(F)F)c(Nc2ccccc2NS(C)(=O)=O)n1 [Example 5, N-(2-((2-((2-methoxy-4-(piperidin-4-yl)phenyl)amino)-5-(trifluoromethyl)pyrimidin-4-yl)amino)phenyl)methanesulfonamide] |  |  | 
4 | > 15000 | 6400 | 9000 | 390 | 26 | 10 | 11 | 5800 | COc1cc(C2CCNCC2)ccc1Nc1ncc(Cl)c(Nc2ccccc2NS(N)(=O)=O)n1 [Example 6, 4-(4-((5-chloro-4-((2-(sulfamoylamino)phenyl)amino)pyrimidin-2-yl)amino)-3-methoxyphenyl)piperidine] |  |  | 
5 | 3400 | 470 | 1600 | > 10000 | 79 | 38 | 2 | 3300 | COc1cc(C2CCNCC2)ccc1Nc1ncc(Br)c(Nc2ccccc2NS(N)(=O)=O)n1 [Example 7, 4-(4-((5-bromo-4-((2-(sulfamoylamino)phenyl)amino)pyrimidin-2-yl)amino)-3-methoxyphenyl)piperidine] |  |  | 
6 | 320 | 330 | 380 | 1200 | 22 | 130 | 2 | 80 | COc1cc(C2CCN(C)CC2)ccc1Nc1ncc(Cl)c(Nc2ccccc2NS(C)(=O)=O)n1 [Example 12, N-(2-((5-chloro-2-((2-methoxy-4-(1-methylpiperidin-4-yl)phenyl)amino)pyrimidin-4-yl)amino)phenyl)methanesulfonamide] |  |  | 
7 | 4400 | 980 | 650 | 1900 | 13 | 250 | 33 | 1500 | COc1cc(C2CCN(CCO)CC2)ccc1Nc1ncc(Cl)c(Nc2ccccc2NS(C)(=O)=O)n1 [Example 13, N-(2-((5-chloro-2-((4-(1-(2-hydroxyethyl)piperidin-4-yl)-2-methoxyphenyl)amino)pyrimidin-4-yl)amino)phenyl)methanesulfonamide] |  |  | 
8 |  |  |  | 2700 | 25 | 32 | 29 |  | COc1cc(N2CCNCC2)ccc1Nc1ncc(Cl)c(Nc2ccccc2NS(C)(=O)=O)n1 [Example 23, N-(2-((5-chloro-2-((2-methoxy-4-(piperazin-1-yl)phenyl)amino)pyrimidin-4-yl)amino)phenyl)methanesulfonamide] |  |  | 
9 |  | 1100 | 940 | 280 | 0.3 | 21 | 1 | > 10000 | COc1cc(N2CCN(C3CCNCC3)CC2)ccc1Nc1ncc(Cl)c(Nc2ccccc2NS(C)(=O)=O)n1 [Example 27, N-(2-((5-chloro-2-((2-methoxy-4-(4-(piperidin-4-yl)piperazin-1-yl)phenyl)amino)pyrimidin-4-yl)amino)phenyl)methanesulfonamide] |  |  | 
10 |  |  |  | 580 | 36 | 29 | 7 |  | COc1cc(N2CCNCC2)ccc1Nc1ncc(C(F)(F)F)c(Nc2ccccc2NS(C)(=O)=O)n1 [Example 31, N-(2-((2-((2-methoxy-4-(piperazin-4-yl)phenyl)amino)-5-(trifluoromethyl)pyrimidin-4-yl)amino)phenyl)methanesulfonamide] |  |  | 
11 |  |  |  |  |  |  | < 1 | 120 | COc1cc(N2CCC(N3C[C@@H](C)N[C@@H](C)C3)CC2)ccc1Nc1ncc(Cl)c(Nc2ccccc2NS(C)(=O)=O)n1 [Example 33, N-(2-((5-chloro-2-((4-(4-((3R,5S)-3,5-dimethylpiperazin-1-yl)piperidin-1-yl)-2-methoxyphenyl)amino)pyrimidin-4-yl)amino)phenyl)methanesulfonamide] |  |  | 
12 |  |  |  |  |  |  | < 1 | 160 | COc1cc(N2CCC(N3CCOCC3)CC2)ccc1Nc1ncc(Cl)c(Nc2ccccc2NS(C)(=O)=O)n1 [Example 34, N-(2-((5-chloro-2-((2-methoxy-4-(4-morpholinopiperidin-1-yl)phenyl)amino)pyrimidin-4-yl)amino)phenyl)methanesulfonamide] |  |  | 
13 |  |  |  | 27 | 1.1 | 8.3 | < 1 | 84 | COc1cc(N2CCC(N3CCCC3)CC2)ccc1Nc1ncc(Cl)c(Nc2ccccc2NS(C)(=O)=O)n1 [Example 35, N-(2-((5-chloro-2-((2-methoxy-4-(4-(pyrrolidin-1-yl)piperidin-1-yl)phenyl)amino)pyrimidin-4-yl)amino)phenyl)methanesulfonamide] |  |  | 
14 |  |  |  |  |  |  |  | 930 | COc1cc(N2CCC(N(C)C)CC2)ccc1Nc1ncc(Cl)c(Nc2ccccc2NS(N)(=O)=O)n1 [Example 36] |  |  | 
15 |  |  |  |  |  |  |  | 840 | COc1cc(N2CCC(N)CC2)ccc1Nc1ncc(Cl)c(Nc2ccccc2NS(C)(=O)=O)n1 [Example 38, N-(2-((2-((4-(4-aminopiperidin-1-yl)-2-methoxyphenyl)amino)-5-chloropyrimidin-4-yl)amino)phenyl)methanesulfonamide] |  |  | 
16 |  |  |  |  |  |  |  | 500 | CNC1CCN(c2ccc(Nc3ncc(Cl)c(Nc4ccccc4NS(C)(=O)=O)n3)c(OC)c2)CC1 [Example 40, N-(2-((5-chloro-2-((2-methoxy-4-(4-(methylamino)piperidin-1-yl)phenyl)amino)pyrimidin-4-yl)amino)phenyl)methanesulfonamide] |  |  | 

Row | Compound | IC50 (Ba/F3 EGFR wt. cell line) [nM] | IC50 [1] [nM] | IC50 ([2]; CellTiter-Glo, 72 hours) [nM] | IC50 (EGFR wt.) [nM] | IC50 (EGFR del19) [nM] | IC50 (EGFR del19/T790M) [nM] | IC50 (EGFR del19/T790M/C797S; [4]) [nM] | IC50 ([3]; CellTiter-Glo, 72 hours) [nM] | IC50 (EGFR del19/T790M/C797S) [nM] | IC50 ([2]; 72 h) [nM] | IC50 ([3]; 72 h) [nM]
17 | COc1cc(C2CCNCC2)ccc1Nc1ncc(Cl)c(Nc2ccccc2NS(C)(=O)=O)n1 [Example 1, N-(2-((5-chloro-2-((2-methoxy-4-(piperidin-4-yl)phenyl)amino)pyrimidin-4-yl)amino)phenyl)methanesulfonamide] | > 15000 | 6600 | 7100 |  |  |  |  |  |  |  | 
18 | COc1cc(N2CCC(N3CCN(CCO)CC3)CC2)ccc1Nc1ncc(Cl)c(Nc2ccccc2NS(C)(=O)=O)n1 [Example 22, N-(2-((5-chloro-2-((4-(4-(4-(2-hydroxyethyl)piperazin-1-yl)piperidin-1-yl)-2-methoxyphenyl)amino)pyrimidin-4-yl)amino)phenyl)methanesulfonamide] |  | 900 |  | 260 | 0.4 | 31 |  |  | 0.8 | 390 | 1300
